Source: US11505556B2, “Halogenated derivatives of morphinans and uses thereof” (Xalud Therapeutics, Inc., priority 2017, dated 2022)
Where “and” joins values, the source holds several entries; their conditions need not be identical. Equal entries are not always repeated. Where two headings read alike, the source gives them in different places.

Experiments:
in vitro [1] = settings: monkey, cultured hepatocytes
[2] = molecular target: Transporter, Norepinephrine (NET) (Homo sapiens, UniProt P23975); assay: Off-target screening; format: binding
Sequence of Transporter, Norepinephrine (NET) (P23975 whole entry): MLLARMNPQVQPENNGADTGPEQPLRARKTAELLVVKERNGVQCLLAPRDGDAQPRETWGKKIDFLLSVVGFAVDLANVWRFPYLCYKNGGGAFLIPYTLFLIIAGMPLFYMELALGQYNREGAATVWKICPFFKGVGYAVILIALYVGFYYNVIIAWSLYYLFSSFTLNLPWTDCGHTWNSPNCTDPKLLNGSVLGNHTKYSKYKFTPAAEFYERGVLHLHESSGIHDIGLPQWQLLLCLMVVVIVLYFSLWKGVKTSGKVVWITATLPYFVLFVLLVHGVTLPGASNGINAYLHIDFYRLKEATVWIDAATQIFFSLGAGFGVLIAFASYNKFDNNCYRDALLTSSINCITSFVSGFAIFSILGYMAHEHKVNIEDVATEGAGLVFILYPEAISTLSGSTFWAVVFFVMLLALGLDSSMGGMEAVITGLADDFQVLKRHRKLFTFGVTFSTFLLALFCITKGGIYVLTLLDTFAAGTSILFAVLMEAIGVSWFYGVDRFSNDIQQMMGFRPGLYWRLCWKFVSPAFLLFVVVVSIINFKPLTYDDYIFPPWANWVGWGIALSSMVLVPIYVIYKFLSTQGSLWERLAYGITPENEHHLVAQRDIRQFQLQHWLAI
Excerpt: (§1) In addition to the animal studies presented above in Examples 1-9, the results of in vitro testing of several of the compounds (i.e., XT-203, XT-204, and XT-206 through XT-217) are shown in Table 5 and Table 6. […]. Nine additional compounds had two or fewer off-target hits in the screening. […] These compounds spanned all of the tested N-modification classes. […]. Thus, the medicinal chemistry approach taken in this series of fluorinated compounds can yield low off-target activity and longer metabolic lifetime while preserving TLR4 antagonism. It is appreciated that further development of compounds in this class, using techniques known to those skilled in the art, may yield additional compounds with desirable pharmacologic and toxicologic characteristics.

Opiate κ (OP2, KOP) = Opiate κ (OP2, KOP) (Homo sapiens, UniProt P41145); assay: Off-target screening; format: binding
Sequence of Opiate κ (OP2, KOP) (P41145 whole entry): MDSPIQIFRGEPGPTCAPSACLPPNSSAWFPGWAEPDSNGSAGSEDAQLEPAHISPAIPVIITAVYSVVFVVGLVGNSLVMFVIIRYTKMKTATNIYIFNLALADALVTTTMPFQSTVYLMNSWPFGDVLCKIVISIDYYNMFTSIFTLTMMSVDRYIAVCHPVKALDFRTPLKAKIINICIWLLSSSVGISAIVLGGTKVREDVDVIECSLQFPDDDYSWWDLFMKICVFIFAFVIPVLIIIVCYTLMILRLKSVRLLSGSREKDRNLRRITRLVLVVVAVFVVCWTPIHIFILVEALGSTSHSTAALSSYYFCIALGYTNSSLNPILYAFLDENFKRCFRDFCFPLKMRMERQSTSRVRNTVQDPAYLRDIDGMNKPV
Excerpt: as §1

Dopamine D2S = Dopamine D2S (Homo sapiens, UniProt P14416); assay: Off-target screening; format: binding
Excerpt: as §1

Adrenergic α2A = molecular target: T1, Adrenergic α2A (Homo sapiens, UniProt P08913); assay: Off-target screening; format: binding; settings: 10 μM
T1 sequence (P08913 1-465): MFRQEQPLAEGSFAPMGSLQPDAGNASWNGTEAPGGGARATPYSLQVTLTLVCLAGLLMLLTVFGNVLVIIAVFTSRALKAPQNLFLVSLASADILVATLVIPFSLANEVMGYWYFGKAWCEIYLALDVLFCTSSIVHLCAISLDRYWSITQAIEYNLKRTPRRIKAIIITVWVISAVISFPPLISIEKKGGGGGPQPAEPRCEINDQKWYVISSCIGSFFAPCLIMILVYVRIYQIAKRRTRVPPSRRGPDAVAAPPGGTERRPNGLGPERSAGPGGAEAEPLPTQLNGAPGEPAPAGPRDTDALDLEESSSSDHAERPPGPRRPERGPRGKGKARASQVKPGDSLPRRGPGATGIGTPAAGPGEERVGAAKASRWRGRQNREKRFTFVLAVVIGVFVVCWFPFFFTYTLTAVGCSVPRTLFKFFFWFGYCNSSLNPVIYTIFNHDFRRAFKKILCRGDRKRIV
Excerpt: as §1

Adrenergic α1A = assay: Off-target screening; format: binding
Excerpt: as §1

Sodium channel site 2 = assay: Off-target screening; format: binding
Excerpt: as §1

Adrenergic α1D = Adrenergic α1D (Homo sapiens, UniProt P25100); assay: Off-target screening; format: binding
Sequence of Adrenergic α1D (P25100 whole entry): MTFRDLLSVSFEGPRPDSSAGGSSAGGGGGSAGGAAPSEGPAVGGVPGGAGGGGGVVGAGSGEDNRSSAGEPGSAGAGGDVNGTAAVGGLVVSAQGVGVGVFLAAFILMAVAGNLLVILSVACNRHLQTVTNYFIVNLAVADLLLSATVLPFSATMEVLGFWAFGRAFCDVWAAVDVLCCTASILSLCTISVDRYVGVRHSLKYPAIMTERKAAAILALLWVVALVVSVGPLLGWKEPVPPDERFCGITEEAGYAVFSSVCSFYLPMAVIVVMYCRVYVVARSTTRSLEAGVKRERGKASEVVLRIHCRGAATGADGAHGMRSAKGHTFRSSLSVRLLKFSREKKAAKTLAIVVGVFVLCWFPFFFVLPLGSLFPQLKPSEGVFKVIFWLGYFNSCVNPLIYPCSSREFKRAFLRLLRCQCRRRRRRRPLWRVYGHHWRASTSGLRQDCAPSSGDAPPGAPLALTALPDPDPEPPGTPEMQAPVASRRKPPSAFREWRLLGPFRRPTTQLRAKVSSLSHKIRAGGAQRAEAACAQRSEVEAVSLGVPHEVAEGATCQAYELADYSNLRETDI
Excerpt: as §1

[3] = test system: Calcium channel L-Type, phenylalkylamine; assay: Off-target screening; format: binding
Excerpt: as §1

[4] = test system: Calcium channel L-Type, benzothiazepine; assay: Off-target screening; format: binding
Excerpt: as §1

Opiate μ (OP3, MOP) = Opiate μ (OP3, MOP) (Homo sapiens, UniProt P35372); assay: Off-target screening; format: binding
Excerpt: as §1

Cannabinoid CB1 = Cannabinoid CB1 (Homo sapiens, UniProt P21554); assay: Off-target screening; format: binding
Sequence of Cannabinoid CB1 (P21554 whole entry): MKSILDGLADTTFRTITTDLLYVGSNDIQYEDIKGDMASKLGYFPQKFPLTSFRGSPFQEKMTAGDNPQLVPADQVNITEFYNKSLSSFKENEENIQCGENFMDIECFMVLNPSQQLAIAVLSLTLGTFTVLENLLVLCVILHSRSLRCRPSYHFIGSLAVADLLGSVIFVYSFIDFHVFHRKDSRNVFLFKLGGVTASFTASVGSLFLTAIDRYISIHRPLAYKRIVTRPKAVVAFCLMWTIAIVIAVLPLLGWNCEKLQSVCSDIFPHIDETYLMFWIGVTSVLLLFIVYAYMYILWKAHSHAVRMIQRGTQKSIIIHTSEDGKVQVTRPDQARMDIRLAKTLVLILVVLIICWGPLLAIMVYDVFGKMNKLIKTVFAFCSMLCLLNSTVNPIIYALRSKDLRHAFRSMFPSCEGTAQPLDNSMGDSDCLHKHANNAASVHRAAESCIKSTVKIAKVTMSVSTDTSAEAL
Excerpt: as §1

Dopamine D2L = Dopamine D2L (Homo sapiens, UniProt P14416); assay: Off-target screening; format: binding
Excerpt: as §1

Tachykinin NK1 = Tachykinin NK1 (Homo sapiens, UniProt P25103); assay: Off-target screening; format: binding
Excerpt: as §1

Adrenergic α2B = Adrenergic α2B (Homo sapiens, UniProt P18089); assay: Off-target screening; format: binding
Excerpt: as §1

Histamine H2 = Histamine H2 (Homo sapiens, UniProt P25021); assay: Off-target screening; format: binding
Excerpt: as §1

Adrenergic α1B = assay: Off-target screening; format: binding
Excerpt: as §1

in vitro [5] = settings: mouse, hepatocytes
[6] = test system: TLR4 (LPS-stimulated NO production, BV-2 mouse microglia cell line); assay: NO assay: inhibition of LPS-induced NO production in BV-2 microglia (iNOS cellular); format: cell-based; settings: Mus musculus
Excerpt: NO assay: Microglia are the resident cells of the innate immune system in the central nervous system, and TLR4 is primarily expressed by microglia rather than astrocytes or neurons in the CNS. Given this expression profile, the BV-2 mouse microglia cell line was used as the model system of microglia, as these cells recapitulate many of the responses of primary microglia with high fidelity. TLR4 activation induces the downstream production of the inflammatory factor NO, which contributes to the development of neuropathic pain and drug addiction. BV-2 murine microglia were grown in supplemented DMEM (including 10% FBS, 50 unit mL^−1 penicillin, 50 μg·mL^−1 streptomycin). BV-2 cells were detached from the flask by trypsin digestion when ˜80% confluence was reached. Cells were seeded at a density of 4×10^4 cells per well in 96-well plates. After overnight incubation, media was aspirated and changed to DMEM media without FBS. Cells were then treated with LPS (200 ng/ml) and different concentrations of the testing compounds. After 24 h treatment, 100 μL of supernatant media was removed after cells were treated for 24 h and added to flat black 96-well microfluor plates (Thermo Scientific, MA, USA). Subsequently, 10 μL of 2, 3-diaminonaphthalene (0.05 mg·mL^−1 in 0.62 M HCl) was added to each well and incubated for 15 min. The reaction was quenched by addition of 5 μL of 3 M NaOH and the plate was read on a Beckman Coulter DTX880 reader (Fullerton, Calif., USA) with excitation at 360 nm and emission at 430 nm.
N chain NTX: This experimentation involved an in vitro assay where mouse BV2 cells were treated with LPS, which results in the release of nitric oxide (NO). Blockade of TLR4 activity results in reduced NO production. Therefore, IC50 values were determined for test compounds that antagonize TLR4 activity. A series of test compounds were prepared, with different N-alkyl chains replacing the cyclopropyl methyl found in naltrexone. Cell viability was also measured by a standard assay, e.g., measurement of the release of cytoplasm-resident enzymes in the tissue culture supernatant or media to detect cell loss/lysis/rupture. A dose-inhibition curve was generated by testing the TLR4 antagonist compound for the ability to block LPS-stimulated iNOs induction. In FIG. 7, the inhibition levels across a range of doses are graphed, along with a regression curve. The IC50 value—50% inhibition level—is also provided, graphed against the length of the alkyl chain. Note that with longer N-alkyl chain the IC50 was reduced, although cell viability became problematic.
FIGS. 8B to 8D show the results of the inhibition of NO production from LPS-stimulated BV2 cells using the assay described above.

in vitro [7] = settings: dog, cultured hepatocytes
in vitro [8] = settings: human, cultured hepatocytes
in vitro [9] = settings: rat, cultured hepatocytes
hERG = hERG (Homo sapiens, UniProt Q12809); assay: hERG inhibition
Sequence of hERG (Q12809 whole entry): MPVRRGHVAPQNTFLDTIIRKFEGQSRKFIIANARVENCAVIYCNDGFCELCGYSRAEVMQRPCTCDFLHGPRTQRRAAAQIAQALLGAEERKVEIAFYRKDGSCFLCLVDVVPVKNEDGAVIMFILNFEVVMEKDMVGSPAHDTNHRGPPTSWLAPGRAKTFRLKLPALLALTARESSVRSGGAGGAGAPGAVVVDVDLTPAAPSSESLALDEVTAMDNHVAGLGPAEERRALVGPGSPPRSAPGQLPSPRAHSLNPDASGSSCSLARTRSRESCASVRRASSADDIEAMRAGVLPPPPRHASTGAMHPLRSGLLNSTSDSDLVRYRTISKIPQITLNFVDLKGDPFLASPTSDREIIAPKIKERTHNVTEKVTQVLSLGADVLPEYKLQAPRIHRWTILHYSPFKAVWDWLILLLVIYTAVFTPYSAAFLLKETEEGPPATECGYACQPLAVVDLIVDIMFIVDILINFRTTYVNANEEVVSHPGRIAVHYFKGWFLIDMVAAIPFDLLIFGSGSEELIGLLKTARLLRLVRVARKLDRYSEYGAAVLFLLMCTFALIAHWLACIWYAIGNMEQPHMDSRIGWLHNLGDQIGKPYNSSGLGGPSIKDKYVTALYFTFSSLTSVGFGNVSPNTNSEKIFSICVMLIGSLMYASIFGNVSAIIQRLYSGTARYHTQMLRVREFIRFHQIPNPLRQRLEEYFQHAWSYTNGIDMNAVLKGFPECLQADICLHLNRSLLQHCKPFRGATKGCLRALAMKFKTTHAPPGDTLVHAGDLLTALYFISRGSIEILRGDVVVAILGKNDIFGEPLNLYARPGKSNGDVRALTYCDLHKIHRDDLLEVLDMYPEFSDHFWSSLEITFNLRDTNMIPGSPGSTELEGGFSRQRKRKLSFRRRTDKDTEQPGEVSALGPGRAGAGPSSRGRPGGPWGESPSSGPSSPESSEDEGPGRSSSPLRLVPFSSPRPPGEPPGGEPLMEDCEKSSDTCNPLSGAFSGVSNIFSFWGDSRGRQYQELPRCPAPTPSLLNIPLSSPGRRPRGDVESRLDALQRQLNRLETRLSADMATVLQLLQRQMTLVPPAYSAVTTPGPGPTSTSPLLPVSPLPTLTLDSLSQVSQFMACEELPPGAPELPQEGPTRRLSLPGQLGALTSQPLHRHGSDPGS

Progesterone, PR-B = Progesterone, PR-B (Homo sapiens, UniProt P06401); assay: Off-target screening; format: binding
Excerpt: as §1

[10] = test system: GABA A, chloride channel, TBOB; assay: Off-target screening; format: binding
Excerpt: as §1

Adenosine A2A = Adenosine A2A (Homo sapiens, UniProt P29274); assay: Off-target screening; format: binding
Excerpt: as §1

Vasopressin V1A = Vasopressin V1A (Homo sapiens, UniProt P37288); assay: Off-target screening; format: binding
Excerpt: as §1

[11] = molecular target: Transporter, Dopamine (DAT) (Homo sapiens, UniProt Q01959); assay: Off-target screening; format: binding
Sequence of Transporter, Dopamine (DAT) (Q01959 whole entry, species assumed): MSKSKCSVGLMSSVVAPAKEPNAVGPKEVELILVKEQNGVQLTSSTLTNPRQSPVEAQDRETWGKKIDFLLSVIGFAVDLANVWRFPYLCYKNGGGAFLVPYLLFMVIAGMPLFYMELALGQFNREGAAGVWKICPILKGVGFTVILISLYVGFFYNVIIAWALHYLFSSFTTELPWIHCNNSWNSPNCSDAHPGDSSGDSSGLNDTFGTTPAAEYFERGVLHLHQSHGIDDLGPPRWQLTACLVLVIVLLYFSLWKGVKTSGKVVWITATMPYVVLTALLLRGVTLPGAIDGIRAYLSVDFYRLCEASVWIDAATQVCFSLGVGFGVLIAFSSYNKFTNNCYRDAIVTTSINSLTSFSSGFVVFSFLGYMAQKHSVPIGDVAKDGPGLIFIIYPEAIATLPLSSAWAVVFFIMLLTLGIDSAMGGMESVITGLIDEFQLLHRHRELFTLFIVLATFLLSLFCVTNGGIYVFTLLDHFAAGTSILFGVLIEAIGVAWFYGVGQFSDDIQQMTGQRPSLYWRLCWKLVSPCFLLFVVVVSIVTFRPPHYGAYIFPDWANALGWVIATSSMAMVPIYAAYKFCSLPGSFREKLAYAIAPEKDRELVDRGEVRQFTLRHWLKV
Excerpt: as §1

Transporter, Adenosine = assay: Off-target screening; format: binding
Excerpt: as §1

Human hepatocytes = assay: Hepatocyte elimination of parent compound; settings: cultured hepatocytes
[12] = molecular target: Protein tyrosine kinase LCK (Homo sapiens, UniProt P06239); assay: Off-target screening; format: biochemical
Excerpt: as §1

iNOS = iNOS (Homo sapiens, UniProt P35228); assay: iNOS enzyme inhibition; format: biochemical
Sequence of iNOS (P35228 whole entry): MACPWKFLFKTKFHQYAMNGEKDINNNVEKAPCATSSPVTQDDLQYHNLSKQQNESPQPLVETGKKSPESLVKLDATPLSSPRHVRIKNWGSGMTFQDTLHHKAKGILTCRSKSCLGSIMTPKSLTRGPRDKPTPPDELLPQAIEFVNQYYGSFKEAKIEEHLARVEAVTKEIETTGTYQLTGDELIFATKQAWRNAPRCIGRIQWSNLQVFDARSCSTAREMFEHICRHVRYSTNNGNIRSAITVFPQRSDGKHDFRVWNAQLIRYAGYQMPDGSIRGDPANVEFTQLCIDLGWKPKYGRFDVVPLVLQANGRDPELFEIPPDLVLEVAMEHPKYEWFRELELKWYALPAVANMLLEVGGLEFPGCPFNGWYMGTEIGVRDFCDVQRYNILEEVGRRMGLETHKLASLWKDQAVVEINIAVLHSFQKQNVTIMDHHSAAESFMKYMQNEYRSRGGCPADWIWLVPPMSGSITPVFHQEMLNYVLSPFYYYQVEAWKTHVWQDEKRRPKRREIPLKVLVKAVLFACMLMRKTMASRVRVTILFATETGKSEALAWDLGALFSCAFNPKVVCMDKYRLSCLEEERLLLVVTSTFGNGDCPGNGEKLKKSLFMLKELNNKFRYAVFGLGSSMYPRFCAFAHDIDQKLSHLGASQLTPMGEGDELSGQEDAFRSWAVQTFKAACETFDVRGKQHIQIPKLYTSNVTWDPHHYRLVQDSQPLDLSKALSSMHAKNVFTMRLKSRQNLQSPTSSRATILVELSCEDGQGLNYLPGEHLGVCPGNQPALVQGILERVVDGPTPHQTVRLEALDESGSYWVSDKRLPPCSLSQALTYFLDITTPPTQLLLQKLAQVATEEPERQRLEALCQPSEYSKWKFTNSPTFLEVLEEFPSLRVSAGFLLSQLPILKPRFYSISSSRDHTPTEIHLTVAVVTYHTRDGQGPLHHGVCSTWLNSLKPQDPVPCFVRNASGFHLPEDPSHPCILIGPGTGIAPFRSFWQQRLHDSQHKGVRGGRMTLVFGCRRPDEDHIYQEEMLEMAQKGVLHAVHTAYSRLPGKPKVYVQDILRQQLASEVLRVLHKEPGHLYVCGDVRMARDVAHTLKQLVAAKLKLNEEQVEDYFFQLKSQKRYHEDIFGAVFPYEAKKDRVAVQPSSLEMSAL

[13] = test system: off-target screening panel; assay: Off-target inhibition screening (whole panel); settings: 10 μM test concentration; hit = inhibition at or above the 50% level
Excerpt: as §1

[14] = Hepatocyte elimination of parent compound, spread across species; format: in vitro ADME; settings: mouse, rat, dog, monkey, human, hepatocytes; lowest to highest species value; read-out: range of hepatocyte elimination half-life values across species
Method: Hepatocyte Elimination: (+)-NTX, AK-17 and XT-203 were incubated with cultured hepatocytes from the species listed in FIG. 9 and Table 4, and samples of the culture supernatant were collected over time. Samples were concentrated by nitrogen drying followed by reconstitution with 40% methanol for LC/MS analysis The data points were analyzed using the WinNonLin pharmacokinetics software package, and a half-life was determined that describes the rate of parent elimination. […].
as §1

[15] = Microglia, Table 6, unit inferred, footnote: Indicator of TL4 antagonism
[16] = LPS (200 ng/ml), 24 h, BV-2 cells, Table 3

## COc1ccc2c3c1O[C@@H]1C(F)CCC4[C@H](C2)N(C(C)Cc2ccccc2)CC[C@]341 (some centres unmarked) [XT-215]
In vitro [1]
  half-life: 22.1 min
[2]
  inhibition at 10 µM: 61%
Opiate κ (OP2, KOP)
  inhibition at 10 µM: 79%
Dopamine D2S
  inhibition at 10 µM: 81%
Adrenergic α2A
  inhibition at 10 µM: 96%
Adrenergic α1A
  % Inhibition at 10 μM, Adrenergic α1A: 85% and 99%
Sodium channel site 2
  % Inhibition at 10 μM, Sodium channel site 2: 101%
Adrenergic α1D
  inhibition at 10 µM: 92%
[3]
  % Inhibition at 10 μM, Calcium channel L-Type phenylalkylamine: 73% and 51%
[4]
  % Inhibition at 10 μM, Calcium channel L-Type, benzothiazepine: 51% and 73%
Opiate μ (OP3, MOP)
  inhibition at 10 µM: 79%
Cannabinoid CB1
  inhibition at 10 µM: 57%
Dopamine D2L
  inhibition at 10 µM: 65%
Tachykinin NK1
  inhibition at 10 µM: 55%
Adrenergic α2B
  inhibition at 10 µM: 105%
Histamine H2
  inhibition at 10 µM: 82%
Adrenergic α1B
  % Inhibition at 10 μM, Adrenergic α1B: 99%
In vitro [5]
  half-life: 20.7 min
[6]; [15]
  IC50: > 10 µM
[6]; [16]
  IC50: > 10 µM
In vitro [7]
  half-life: 19.6 min
In vitro [8]
  half-life: 65.6 min
In vitro [9]
  half-life: 12.7 min
hERG; human
  IC50: 10 µM
hERG; human, read-out: hERG inhibition, percent
  inhibition at 10 µM: 51%

## COc1ccc2c3c1O[C@@H]1C(F)CCC4[C@H](C2)N(C(=O)C(C)(C)c2ccccc2)CC[C@]341 (some centres unmarked) [XT-216]
In vitro [1]
  half-life: 10.6 min
[2]
  inhibition at 10 µM: 59%
Progesterone, PR-B
  inhibition at 10 µM: 50%
Opiate κ (OP2, KOP)
  inhibition at 10 µM: 69%
[10]
  % Inhibition at 10 μM, GABA A, chloride channel, TBOB: 54%
Adenosine A2A
  inhibition at 10 µM: 57%
Vasopressin V1A
  inhibition at 10 µM: 69%
[11]
  inhibition at 10 µM: 52%
Cannabinoid CB1
  inhibition at 10 µM: 82%
Transporter, Adenosine
  % Inhibition at 10 μM, Transporter, Adenosine: 60%
In vitro [5]
  half-life: 20.8 min
[6]; [15]
  IC50: > 10 µM
[6]; [16]
  IC50: > 10 µM
In vitro [7]
  half-life: 17.1 min
In vitro [8]
  half-life: 31.5 min
In vitro [9]
  half-life: 11.3 min
hERG
  IC50: > 10 µM

## COc1ccc2c3c1O[C@@H]1C(F)CCC4[C@H](C2)N(S(C)(=O)=O)CC[C@]341 (some centres unmarked) [XT-209]
Human hepatocytes
  parent duration in human hepatocytes relative to XT-203: longer parent duration than XT-203
In vitro [1]
  half-life: 39.4 min
[12]
  inhibition at 10 µM: 61%
In vitro [5]
  half-life: 22.4 min
[6]; [15]
  IC50: > 10 µM
[6]; [16]
  IC50: > 10 µM
In vitro [7]
  half-life: 89 min
iNOS
  IC50: > 10 µM
iNOS; read-out: iNOS enzyme, Table 6, unit inferred
  IC50: > 10 µM
In vitro [8]
  half-life: 296 min
In vitro [9]
  half-life: 15.3 min
[13]
  off-target hits in the screening: one off-target hit
hERG
  IC50: > 10 µM
[14]
  half-life: 15.3 to 296 min
